The record followed here is patent US9347934B2, “Assays for identifying compounds that modulate bitter taste” (CHROMOCELL CORPORATION, priority 2011, dated 2016).

Common to all, as to assay type: cell-based
One assay concerns the target T1, TAS2R1 (Homo sapiens, UniProt Q9NYW7).
T1 construct: expressed in transfected cells
T1 sequence (Q9NYW7 1-299): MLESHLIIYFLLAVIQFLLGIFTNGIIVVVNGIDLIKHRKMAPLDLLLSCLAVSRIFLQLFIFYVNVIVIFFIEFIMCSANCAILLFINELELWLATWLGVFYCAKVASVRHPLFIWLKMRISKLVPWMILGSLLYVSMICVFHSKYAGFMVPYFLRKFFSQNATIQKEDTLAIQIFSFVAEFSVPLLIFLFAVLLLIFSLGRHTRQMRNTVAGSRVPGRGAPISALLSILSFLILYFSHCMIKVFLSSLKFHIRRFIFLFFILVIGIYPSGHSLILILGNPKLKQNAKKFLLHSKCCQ
Put plainly: Calcium fluorescence functional assay, TAS2R1 cell line. The settings on record: 20 mM tastant; cell line expressing human TAS2R1 and mouse Gα15. The protocol: (§1) Accordingly, each cell line of the panel expressed a human bitter taste receptor and mouse Gα15 signaling protein.
(§2) Probenecid was not included in the load solution.
(§3) After dye loading, cell plates were placed in a fluorescent plate reader (e.g., FDSS6000 (Hamamatsu, Japan)) and receptor stimulation was measured by adding 50 ul of 3× concentrated ligand/agonist stock. Fluorescence was monitored continuously for 10 s before agonist addition and for 100-250 s after stimulation with agonist.
(§4) Receptor Activation is defined as follows: % Activation=[((Maximum signal fluorescence−Minimum signal fluorescence)−(Maximum control fluorescence−Minimum control fluorescence))/(Maximum buffer fluorescence−Minimum buffer fluorescence)]*100 Functional Response=[(Maximum signal fluorescence−Minimum signal fluorescence)−(Maximum control fluorescence−Minimum control fluorescence)] • Signal Fluorescence: refers to the change in fluorescence seen with addition of ligand • Control fluorescence: refers to the change in fluorescence seen with addition of buffer (negative control) • Calcium signals from ligand and control were normalized to the basal fluorescence of the cells prior to the stimulation.
(§5) A concentration analysis was performed and EC50 values were calculated by nonlinear regression using the formula: Y=Bottom+(Top-Bottom)/(1+10^((Log EC50-X)*Hill Slope)), X=log of dose or concentration, Y=Response (increasing as X increases), Top=maximum signal, Bottom=minimum signal.

Another assay deals with T2, TAS2R4 (Homo sapiens, UniProt Q9NYW5).
T2 construct: expressed in transfected cells
T2 sequence (Q9NYW5 1-299): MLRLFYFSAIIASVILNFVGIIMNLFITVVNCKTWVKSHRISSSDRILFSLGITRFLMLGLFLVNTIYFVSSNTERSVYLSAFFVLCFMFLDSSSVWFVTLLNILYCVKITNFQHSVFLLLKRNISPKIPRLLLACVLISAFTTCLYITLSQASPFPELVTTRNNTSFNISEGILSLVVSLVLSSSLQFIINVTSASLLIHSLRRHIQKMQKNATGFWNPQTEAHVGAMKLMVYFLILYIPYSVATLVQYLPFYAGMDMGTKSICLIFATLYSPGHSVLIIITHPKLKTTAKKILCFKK
Kind of assay: Calcium fluorescence functional assay, TAS2R4 cell line. The settings on record: for TAS2R4 bitter taste receptor activity (changes in intracellular calcium): 20 mM tastant, cell line expressing human TAS2R4 and mouse Gα15. The protocol:
as §1, §2, §3, §4, §5

The next assay addresses T3, TAS2R9 (Homo sapiens, UniProt Q9NYW1).
T3 construct: expressed in transfected cells
T3 sequence (Q9NYW1 1-312): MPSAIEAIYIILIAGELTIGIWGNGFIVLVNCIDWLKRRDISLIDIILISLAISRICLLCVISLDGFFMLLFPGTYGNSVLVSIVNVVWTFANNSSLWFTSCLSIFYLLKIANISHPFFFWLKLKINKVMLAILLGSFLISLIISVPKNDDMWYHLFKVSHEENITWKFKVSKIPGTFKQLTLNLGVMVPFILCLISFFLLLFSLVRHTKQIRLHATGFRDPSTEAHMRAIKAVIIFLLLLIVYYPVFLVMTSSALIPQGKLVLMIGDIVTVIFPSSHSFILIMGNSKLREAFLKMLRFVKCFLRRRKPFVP
Kind of assay: Calcium fluorescence functional assay, TAS2R9 cell line. The settings on record: for TAS2R9 bitter taste receptor activity (changes in intracellular calcium): 20 mM tastant, cell line expressing human TAS2R9 and mouse Gα15. On the procedure: as §1, §2, §3, §4, §5

Another assay concerns the target T4, TAS2R39 (Homo sapiens, UniProt P59534).
T4 construct: expressed in transfected cells
T4 sequence (P59534 1-338): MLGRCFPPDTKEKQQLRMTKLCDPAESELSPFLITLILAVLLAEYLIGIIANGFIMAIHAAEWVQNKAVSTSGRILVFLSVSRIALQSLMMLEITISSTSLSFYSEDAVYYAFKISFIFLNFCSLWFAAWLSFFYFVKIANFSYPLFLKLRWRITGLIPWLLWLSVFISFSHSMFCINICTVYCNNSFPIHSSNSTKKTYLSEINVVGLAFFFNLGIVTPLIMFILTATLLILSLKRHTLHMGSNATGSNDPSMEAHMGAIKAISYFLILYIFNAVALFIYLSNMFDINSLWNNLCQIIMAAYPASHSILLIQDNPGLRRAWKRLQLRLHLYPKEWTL
Kind of assay: Calcium fluorescence functional assay, TAS2R39 cell line. The settings on record: 20 mM tastant; cell line expressing human TAS2R39 and mouse Gα15. The protocol:
as §1, §2, §3, §4, §5

The next assay addresses T5, TAS2R41 (Homo sapiens, UniProt P59536).
T5 construct: expressed in transfected cells
T5 sequence (P59536 1-307): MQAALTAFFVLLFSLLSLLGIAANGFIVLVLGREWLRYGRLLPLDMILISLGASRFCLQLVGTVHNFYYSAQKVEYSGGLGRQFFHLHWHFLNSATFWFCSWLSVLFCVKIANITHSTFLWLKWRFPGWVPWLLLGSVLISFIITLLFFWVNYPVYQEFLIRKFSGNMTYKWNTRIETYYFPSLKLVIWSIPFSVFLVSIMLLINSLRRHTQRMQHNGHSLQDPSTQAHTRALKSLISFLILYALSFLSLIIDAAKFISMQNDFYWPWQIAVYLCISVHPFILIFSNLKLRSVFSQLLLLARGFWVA
Put plainly: Calcium fluorescence functional assay, TAS2R41 cell line. The settings on record: 20 mM tastant; cell line expressing human TAS2R41 and mouse Gα15. On the procedure:
as §1, §2, §3, §4, §5

A further assay deals with T6, TAS2R49 (Homo sapiens, UniProt P59543).
T6 construct: expressed in transfected cells
T6 sequence (P59543 1-309): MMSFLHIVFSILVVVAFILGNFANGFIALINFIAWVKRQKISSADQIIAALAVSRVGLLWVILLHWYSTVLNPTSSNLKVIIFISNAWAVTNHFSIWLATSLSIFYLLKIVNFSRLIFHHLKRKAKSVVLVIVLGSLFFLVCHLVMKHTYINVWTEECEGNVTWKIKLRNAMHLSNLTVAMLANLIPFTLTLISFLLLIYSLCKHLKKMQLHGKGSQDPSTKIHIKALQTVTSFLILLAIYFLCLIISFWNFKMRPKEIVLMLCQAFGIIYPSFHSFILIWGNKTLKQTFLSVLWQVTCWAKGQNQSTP
Put plainly: Calcium fluorescence functional assay, TAS2R49 cell line. The settings on record: 20 mM tastant; cell line expressing human TAS2R49 and mouse Gα15. On the procedure:
as §1, §2, §3, §4, §5

SMILES strings stand for the structures.

For `CC(O)C(=O)[O-].[K+]` (centres unmarked) [Potassium lactate, potassium lactate], at TAS2R1, the “TAS2R1 bitter taste receptor activity (changes in intracellular calcium)” value is recorded as “did not induce”. Further, the “TAS2R4 bitter taste receptor activity (changes in intracellular calcium)” value at TAS2R4 was “induced”. Also, the “TAS2R9 bitter taste receptor activity (changes in intracellular calcium)” value on TAS2R9 is “induced”. Besides, the “TAS2R39 bitter taste receptor activity (changes in intracellular calcium)” value at TAS2R39 was “did not induce”. Moreover, the “TAS2R41 bitter taste receptor activity (changes in intracellular calcium)” value at TAS2R41 is reported as “did not induce”. For the same compound, the “TAS2R49 bitter taste receptor activity (changes in intracellular calcium)” value at TAS2R49 is listed as “did not induce”.
Take `[Cl-].[K+]` [KCl, potassium chloride]: at TAS2R1, the “TAS2R1 bitter taste receptor activity (changes in intracellular calcium)” value is recorded as “did not induce”. Further, the “TAS2R4 bitter taste receptor activity (changes in intracellular calcium)” value at TAS2R4 is “induced”. The EC50 lay within 5 to 15 mM at TAS2R4 (increasing concentrations of KCl, TAS2R4 cell line (FIG. 3), read-out: EC50 value, activation of TAS2R4) and 5 to 15 mM at TAS2R9 (increasing concentrations of KCl, TAS2R9 cell line (FIG. 3), read-out: EC50 value, activation of TAS2R9). Besides, the “TAS2R9 bitter taste receptor activity (changes in intracellular calcium)” value at TAS2R9 was “induced”. The “TAS2R39 bitter taste receptor activity (changes in intracellular calcium)” value on TAS2R39 is listed as “did not induce”. Besides, the “TAS2R41 bitter taste receptor activity (changes in intracellular calcium)” value at TAS2R41 is “did not induce”. For the same compound, on TAS2R49, the “TAS2R49 bitter taste receptor activity (changes in intracellular calcium)” value was “did not induce”.
`CC1=CC(=O)NS(=O)(=O)O1` [Acesulfame K]: on TAS2R1, the “TAS2R1 bitter taste receptor activity (changes in intracellular calcium)” value is “induced”. Further, the “TAS2R4 bitter taste receptor activity (changes in intracellular calcium)” value at TAS2R4 was “induced”. Further, the “TAS2R9 bitter taste receptor activity (changes in intracellular calcium)” value on TAS2R9 is given as “induced”. Also, the “TAS2R39 bitter taste receptor activity (changes in intracellular calcium)” value at TAS2R39 is recorded as “did not induce”. At TAS2R41, the “TAS2R41 bitter taste receptor activity (changes in intracellular calcium)” value is listed as “did not induce”. Further, the “TAS2R49 bitter taste receptor activity (changes in intracellular calcium)” value at TAS2R49 is on record as “did not induce”.
